Assay type in all cases: in vivo, mouse
For one test, the system named is EAE mice. As to the kind of experiment: EAE clinical disease score. Also on record: key to Disability: Disease score: ‘+’ indicate marker was significantly (p ≤ 0.05) increased in treatment group relative to vehicle; ‘−’ indicates marker was significantly (p ≤ 0.05) decreased in treatment group relative to vehicle; ○: ‘o’ indicate marker did not change relative to vehicle. The settings on record: for Disability: Disease score / EAE clinical scores / disease progression: vs vehicle; for EAE clinical symptoms during peak disease: therapeutic 5 mg/kg/d from day 8 (postEAE); for EAE clinical scores / disease progression: therapeutic s.c. from day 8 (postEAE).

Test [1] relates to corpus callosum mature OLs (CC1) and MBP. Description: CC1 mature OLs and MBP immunoreactivity in callosal white matter tracts of EAE mice. The arrangement: key to Myelination: OLs / Myelination: MBP: ‘+’ indicate marker was significantly (p ≤ 0.05) increased in treatment group relative to vehicle; ‘−’ indicates marker was significantly (p ≤ 0.05) decreased in treatment group relative to vehicle; ○: ‘o’ indicate marker did not change relative to vehicle. The settings on record: vs vehicle; for CC1+ mature OL numbers, corpus callosum / MBP+ staining, corpus callosum: therapeutic treatment (postEAE). The text has this:
(§1) Immunohistochemistry: Before histological staining, 40-μm free floating sections were thoroughly washed with PBS to remove residual sodium azide (Crawford et al., 2010). Sections were permeabilized with 0.3% Triton X-100 in ix PBS and 15% normal goat serum (NGS). Myelination, gliosis and immune markers were visualized by the following primary antibodies at a concentration of 1:500 unless otherwise noted: chicken anti-myelin basic protein (MBP; polyclonal, EMD Millipore, Darmstadt, Germany), chicken anti-glial fibrillary acidic protein (GFAP; EMD Millipore, Darmstadt), rat anti-cluster of differentiation 45 (CD45; clone 30-F11, BD Biosciences, San Diego, Calif.), mouse anti-ionized calcium-binding adapter molecule 1/allograft inflammatory factor-1 (Iba1/AIF1; clone 20A12.1, EMD Millipore, Darmstadt, Germany), goat anti-CXCL1 (R&D systems; Minneapolis, Minn.) at 1:250 and mouse anti-adenomatous polyposis coli (CC-1; clone CC-1, Genetex, Irvine, Calif.). Secondary staining was performed using polyclonal fluorophore-conjugated antibodies from ThermoFisher Scientific at a concentration of 1:500 unless otherwise specified: goat anti-chicken Alexa Fluor® 555 (AF555), goat anti-rabbit Alexa Fluor® 647 (AF647), donkey anti-chicken IgY Cy3 (EMD Millipore), goat anti-rat IgG AF647, goat anti-rabbit IgG Cy3 (EMD Millipore), goat anti-mouse IgG2b AF647 and rabbit anti-goat AF647. Nuclei were counter stained with 4′,6-Diamidino-2-phenylindole (DAPI, 2 ng/ml; Molecular Probes) for 10 minutes after incubation with secondary antibodies, and sections were mounted on glass slides, allowed to dry, and coverslipped with Fluoromount G mounting medium (Thermo Fisher Scientific) for imaging.
(§2) Confocal Microscopy: Thoracic spinal cord dorsal and ventral column sections, as well as CC were imaged using an Olympus BX61 confocal microscope (Olympus America Inc., Center Valley, Pa.) using a 10× and 40× objective. Z-stack projections were compiled using SlideBook 6 software (Intelligent Imaging Innovations, Inc., Denver, Colo.). Immunostaining was quantified using unbiased stereology (Crawford et al., 2010). All images (RGB) were Confocal converted to grayscale, split, and separated by color channel using imageJ version 2.2.0-rc-46/1.50 g (NIH). To avoid experimenter bias, auto-adjustment of brightness and contrast, as well as threshold of staining signal, was carried out by ImageJ. MBP^+, GFAP^+, CD45^+, Iba1^+, CC1^+, and CXCL1^+, staining intensity was measured as percent area of positive immunoreactivity within the region of interest and intensity of signal determined by ImageJ.
To test whether IndCl analogues promote similar gains in mature OL numbers and myelination, callosal white matter tracts were assessed for adenomatous polyposis coli (CC1) and MBP immunoreactivity, respectively. Additionally, ultrastructural analysis of the CC was performed by EM imaging to confirm the integrity of axon myelination.

The test system of test [2] is CD45+ leukocyte, Iba1+ macrophage/microglia, GFAP+ astrocytes. Description: CD45, Iba1 and GFAP staining in thoracic spinal cord dorsal column of EAE mice. The settings on record: vs vehicle; for CD45 fluorescence intensity, spinal cord dorsal column / GFAP fluorescence intensity, spinal cord dorsal column: therapeutic treatment (postEAE). Also on record: key to CNS Cellular Inflammation: CD45 / CNS Cellular Inflammation: Iba1 / CNS Cellular Inflammation: GFAP: ‘+’ indicate marker was significantly (p ≤ 0.05) increased in treatment group relative to vehicle; ‘−’ indicates marker was significantly (p ≤ 0.05) decreased in treatment group relative to vehicle; ○: ‘o’ indicate marker did not change relative to vehicle.
Excerpt: as §1, §2
To assess whether IndCl analogues exert similar anti-inflammatory effects, CD45+ leukocyte, ionized calcium-binding adapter molecule 1 (Iba1)+ macrophage/microglia, and GFAP+ astrocytes were assessed in thoracic spinal cord dorsal column sections from normal and EAE mice.

The subject of test [3] is myelin basic protein (MBP) in thoracic spinal cord ventral column. Description: MBP immunoreactivity in thoracic ventral column white matter of EAE mice. The settings on record: therapeutic treatment (postEAE), vs vehicle. As to the method:
Histological Preparation of Tissues: Mice were deeply anesthetized by isoflurane (Piramal Healthcare) inhalation and perfused transcardially with phosphate buffered saline (PBS), followed by 10% formalin (Thermo Fisher Scientific) to fix tissues. Brains and spinal cords were dissected and post-fixed in 10% formalin (Thermo Fisher Scientific) for 24 hours, then cryoprotected in 30% sucrose (EMD Millipore, Darmstadt, Germany) for 48 hours and embedded in gelatin for sectioning. Embedded brains and spinal cords were then cut into 40-μm coronal sections using an HM525 NX cryostat (Thermo Fisher Scientific). Sections were collected serially and stored in PBS with 1% sodium azide at 4° C. until staining by immunohistochemistry, following a previously described protocol (Crawford et al., 2010; Moore et al., 2014).
Immunohistochemistry: Before histological staining, 40-μm free floating sections were thoroughly washed with PBS to remove residual sodium azide (Crawford et al., 2010). Sections were permeabilized with 0.3% Triton X-100 in ix PBS and 15% normal goat serum (NGS). […]
Confocal Microscopy: Thoracic spinal cord dorsal and ventral column sections, as well as CC were imaged using an Olympus BX61 confocal microscope (Olympus America Inc., Center Valley, Pa.) using a 10× and 40× objective. […] Immunostaining was quantified using unbiased stereology (Crawford et al., 2010). […] MBP^+, GFAP^+, CD45^+, Iba1^+, CC1^+, and CXCL1^+, staining intensity was measured as percent area of positive immunoreactivity within the region of interest and intensity of signal determined by ImageJ.
Treatment with IndCl or other ERβ ligands improves myelination within CNS white tracts of mice with EAE (Khalaj et al., 2013; Kumar et al., 2013; Moore et al., 2014). To establish the pro-myelinating effects of the IndCl analogues tested, thoracic ventral column white matter was assessed for myelin basic protein (MBP) immunoreactivity.

[4] abbreviates: Post (therapeutic, postEAE) treatment of EAE mice.
The mark [5] stands for this setting: Pre (prophylactic, preEAE) E2 treatment of EAE mice.

Entries after “also recorded” stand apart in the source; their conditions may differ.

In the case of `C[C@]12CC[C@@H]3c4ccc(O)cc4CC[C@H]3[C@@H]1CC[C@@H]2O` [E2, 170 estradiol], the “Disability: Disease score” value in the test with EAE mice (setting [4]) is “○”. Also, in the test on EAE mice (setting [5]), the “Disability: Disease score” value is on record as “−”. Moreover, in test [1] (setting [4]), the “Myelination: MBP” value is “○” and the “Myelination: OLs” value is “+”. In addition, in test [1] (setting [5]), the “Myelination: MBP” value was “+” and the “Myelination: OLs” value was “+”. In test [2] (setting [4]), the “CNS Cellular Inflammation: CD45” value was “−”, the “CNS Cellular Inflammation: GFAP” value is “○” and the “CNS Cellular Inflammation: Iba1” value is given as “○”. Further, in test [2] (setting [5]), the “CNS Cellular Inflammation: CD45” value was “−”, the “CNS Cellular Inflammation: GFAP” value is reported as “−” and the “CNS Cellular Inflammation: Iba1” value is given as “−”.
With `Oc1ccc(-n2nc3ccc(O)cc3c2Cl)cc1` [IndCl, chloroindazole], the “MBP staining intensity, thoracic spinal cord ventral column” value (“MBP staining intensity” for short) in test [3] was “maintained at near normal levels; also recorded: increased”. Besides, the “Disability: Disease score” value in the test on EAE mice (setting [4]) is listed as “○”. For the same molecule, in the test with EAE mice, the “EAE clinical symptoms during peak disease” value is given as “did not significantly affect EAE clinical symptoms” and the “EAE clinical scores / disease progression” value is reported as “reversed disease progression over time”. For the same molecule, in test [1] (setting [4]), the “Myelination: MBP” value is reported as “+” and the “Myelination: OLs” value is reported as “+”. Also, in test [1], the “CC1+ mature OL numbers, corpus callosum” value is “significant increase; also recorded: rescued the loss of CC1+ cells” and the “MBP+ staining, corpus callosum” value is on record as “increased MBP+ staining”. Also, in test [2] (setting [4]), the “CNS Cellular Inflammation: CD45” value was “−”, the “CNS Cellular Inflammation: GFAP” value was “○” and the “CNS Cellular Inflammation: Iba1” value was “−”. The “CD45 fluorescence intensity, spinal cord dorsal column” value (“CD45 fluorescence intensity” for short) in test [2] was “similar”.
Turning to `Oc1ccc(-n2nc3ccc(O)cc3c2Cl)c(Cl)c1` [IndCl-o-Cl, 3-chloro-2-(2-chloro-4-hydroxyphenyl)-2H-indazol-5-ol], in test [3], the “MBP staining intensity” value is “maintained at near normal levels; also recorded: increased”. The “Disability: Disease score” value in the test with EAE mice (setting [4]) is on record as “−”. Besides, in the test on EAE mice, the “EAE clinical symptoms during peak disease” value is “did not significantly affect EAE clinical symptoms” and the “EAE clinical scores / disease progression” value is reported as “reversed disease progression over time; also recorded: significantly reduced”. In addition, in test [1] (setting [4]), the “Myelination: MBP” value is “+” and the “Myelination: OLs” value is on record as “+”. In addition, in test [1], the “CC1+ mature OL numbers, corpus callosum” value was “significant increase” and the “MBP+ staining, corpus callosum” value is reported as “increased MBP+ staining”. In test [2] (setting [4]), the “CNS Cellular Inflammation: CD45” value is “−”, the “CNS Cellular Inflammation: GFAP” value is “○” and the “CNS Cellular Inflammation: Iba1” value is listed as “○”. For the same molecule, in test [2], the “CD45 fluorescence intensity” value is “similar” and the “GFAP fluorescence intensity, spinal cord dorsal column” value is on record as “similar”.
In the case of `Cc1cc(O)ccc1-n1nc2ccc(O)cc2c1Cl` [IndCl-o-Me, 3-chloro-2-(4-hydroxy-2-methylphenyl)-2H-indazol-5-ol], the “MBP staining intensity” value in test [3] is “maintained at near normal levels; also recorded: increased”. Also, the “Disability: Disease score” value with EAE mice (setting [4]) is listed as “−”. In the test on EAE mice, the “EAE clinical symptoms during peak disease” value is on record as “did not significantly affect EAE clinical symptoms” and the “EAE clinical scores / disease progression” value was “reversed disease progression over time; also recorded: significantly reduced”. Moreover, in test [1] (setting [4]), the “Myelination: MBP” value is “+” and the “Myelination: OLs” value was “+”. In addition, in test [1], the “CC1+ mature OL numbers, corpus callosum” value is “significant increase” and the “MBP+ staining, corpus callosum” value is “increased MBP+ staining”. Further, in test [2] (setting [4]), the “CNS Cellular Inflammation: CD45” value is “−”, the “CNS Cellular Inflammation: GFAP” value is reported as “○” and the “CNS Cellular Inflammation: Iba1” value was “○”. Besides, in test [2], the “CD45 fluorescence intensity” value is reported as “similar” and the “GFAP fluorescence intensity, spinal cord dorsal column” value was “similar”.

These data come from patent publication US11673866B2, “Estrogen receptor beta ligands for the prevention and treatment of multiple sclerosis (MS) and other demyelinating, inflammatory and neurodegenerative diseases” (The Board of Trustees of the University of Illinois, priority 2018, dated 2023).
